Source: US8329735B2, “Tetrazole compounds which selectively modulate the CB2 receptor” (Boehringer Ingelheim International GmbH, priority 2010, dated 2012)
≈ marks a conversion by molar mass, not a printed value. Where two headings read alike, the source gives them in different places.

Legend:
[1] = Aqueous (equilibrium) solubility assay; assay type: physicochemical; conditions: aqueous buffer, thermodynamic from solid, 48 hrs equilibrium
Protocol: The equilibrium solubility of compounds is determined in pH 2, 4.5, 6.8 buffers. Prior to solubility measurement, the crystalline/amorphous characteristics of the sample are determined by observing the powder form under polarized light microscope. Solubility is only measured when compound is crystalline.
Approximately 2 mg of compound are weighed out into a vial and 1-2 ml of buffer are added into the vial (pHs 2 & 4.5, use 1 ml and for pHs 6.8 and 7.4 use 2 ml of buffer). The vial is rotated for 48 hrs protected from light. After 48 hrs, the sample is transferred into an eppendorf tube and centrifuged for 10 minutes at 14,000 RPM, if the supernatant is not clear, it is filtered (PVDF filter). The clear supernatant is diluted if necessary, before analyzing via HPLC. The final pH of the supernatant or the filtrate is measured and reported. The external calibration curve is used to determine the solubility value. The percentage of extraneous peaks relative to the parent peak is monitored in the standard solution as well as the solubility sample. Preferred compounds of the invention will have a solubility of >100 μg/ml.

[2] = Human microsomal stability assay; assay type: in vitro ADME; conditions: human liver microsomes 1 mg protein/ml, 1 uM compound, pH 7.4
Protocol: The double time point high throughput screen for human liver microsomal metabolic stability is used to measure the in vitro metabolism of test compounds by human liver microsomal enzymes. The data collected are analyzed to calculate a half-life (t½, min) and clearance (expressed as percent hepatic blood flow, % QH) for test compounds. The assay is performed in 50 mM potassium phosphate buffer, pH 7.4 and 2.5 mM NADPH. Test samples are dissolved in DMSO and acetonitrile for a final assay concentration of 1 uM. Human liver microsomes are diluted in assay buffer to a final assay concentration of 1 mg protein/ml. Compound solution and microsome suspension are added to assay buffer for a final incubation volume of 350 ul. The preparation is incubated for 5 min in a 37° C. water bath. The reaction is started by the addition of NADPH. Volumes of 80 ul are removed from the incubation mix at 0, 5, and 30 min after the start of the reaction and added to 160 ul acetonitrile. The supernatant is transferred to 0.25 mm glass fiber filter plates and centrifuged for 5 min at 3000 rpm. Injection volumes of 10 ul are typically added to HPLC columns with formic acid in water or acetonitrile at a flow rate of 0.3 ml/min. Percent loss of parent compound is calculated from the area under each time point to determine the half-life and clearance. Preferred compounds of the invention will have a human liver microsomal stability of <25% QH.

[3] = tested on: Salmonella bacterial strains TA98 and TA100; test: Ames mutagenicity assay: bacteria reverse mutation screening assay; assay type: cell-based; conditions: TA98 and TA100, presence or absence of S9
Protocol: The Ames ^(1) Salmonella bacterial strains used in the abbreviated screening assay ^(2) are TA98 and TA100. Actively growing (log phase) bacteria are incubated with test compound and trace amounts of histidine in the presence or absence of S9 for 48 hours on minimal agar plates. Test compound is dissolved in DMSO to a final concentration of 100 mg/ml. The stock is serially diluted to yield concentrations of 100, 50, 25 12.5 and 6.3 mg/ml. Fifty microliters of dosing solution is combined with top agar and buffer (or S9 mix) and poured on duplicate plates to yield effective doses of 5000, 2500, 1250, 625 and 313 μg/plate. Positive and negative controls plates are included. Formation of colonies after 48 hr incubation at 37° C. is an indication of genetic reversion, either arising spontaneously or caused by the test compound. The average number of spontaneous colonies growing on control plates is compared to the number of colonies on test plates. A fold increase of 2-3× over background is generally considered a positive response for mutagenicity. • 1. Maron, D. M. and Ames, B. N. (1983). “Revised Methods for the Salmonella Mutagenicity Test”. Mutat. Res. 113, 173-215. • 2. D. A. Burke, D. J. Wedd, and B. Burlinson (1996). “Use of the Miniscreen assay to screen novel compounds for bacterial mutagenicity in the pharmaceutical industry”. Mutagenesis 11: 201-205.

human CB2R = biological target: T1, human CB2R (Homo sapiens, UniProt P34972); test: CB2R mediated modulation of cAMP synthesis; assay type: cell-based
T1 construct: host or cells: CHO cells
Protocol: Compounds of the invention are evaluated for their CB2 agonist or inverse agonistic activity in accordance with the following experimental method.
(§1) CHO cells expressing human CB2R (Euroscreen) are plated at a density of 5000 cells per well in 384 well plates and incubated overnight at 37° C. After removing the media, the cells are treated with test compounds diluted in stimulation buffer containing 1 mM IBMX, 0.25% BSA and 10 uM Forskolin. The assay is incubated for 30 minutes at 37° C. Cells are lysed and the cAMP concentration is measured using DiscoverX—XS cAMP kit, following the manufacturer's protocol. In this setting, agonists will decrease forskolin induced production of cAMP while inverse agonists will further increase forskolin induced production of cAMP. EC50 of agonists are calculated as follows. The maximal amount of cAMP produced by forskolin compared to the level of cAMP inhibited by 1 uM CP55940 is defined as 100%. The EC50 value of each test compound is determined as the concentration at which 50% of the forskolin-stimulated cAMP synthesis is inhibited. Data is analyzed using a four-parameter logistic model. (Model 205 of XLfit 4.0).

human CB1R = biological target: T2, human CB1R (Homo sapiens, UniProt P21554); test: CB1R mediated modulation of cAMP synthesis; assay type: cell-based; conditions: CHO cells expressing human CB1R, forskolin-stimulated cAMP
T2 construct: host or cells: CHO cells
Protocol: Compounds of the invention are evaluated for their CB1 agonist or inverse agonistic activity in accordance with the following experimental method.
as §1, with “CB1R” for “CB2R”

T2 sequence (P21554 whole entry): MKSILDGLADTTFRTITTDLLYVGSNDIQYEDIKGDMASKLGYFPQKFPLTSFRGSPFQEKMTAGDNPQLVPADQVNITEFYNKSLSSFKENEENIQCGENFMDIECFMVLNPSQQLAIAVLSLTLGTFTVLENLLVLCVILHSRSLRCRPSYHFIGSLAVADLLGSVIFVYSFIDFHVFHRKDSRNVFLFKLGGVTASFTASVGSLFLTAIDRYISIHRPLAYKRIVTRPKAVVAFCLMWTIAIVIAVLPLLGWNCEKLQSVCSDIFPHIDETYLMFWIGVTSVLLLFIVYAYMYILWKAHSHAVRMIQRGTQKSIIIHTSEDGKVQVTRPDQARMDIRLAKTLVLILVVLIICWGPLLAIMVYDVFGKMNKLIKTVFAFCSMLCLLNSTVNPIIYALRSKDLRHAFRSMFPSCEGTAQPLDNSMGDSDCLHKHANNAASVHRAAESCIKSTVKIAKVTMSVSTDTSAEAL
T1 sequence (P34972 whole entry): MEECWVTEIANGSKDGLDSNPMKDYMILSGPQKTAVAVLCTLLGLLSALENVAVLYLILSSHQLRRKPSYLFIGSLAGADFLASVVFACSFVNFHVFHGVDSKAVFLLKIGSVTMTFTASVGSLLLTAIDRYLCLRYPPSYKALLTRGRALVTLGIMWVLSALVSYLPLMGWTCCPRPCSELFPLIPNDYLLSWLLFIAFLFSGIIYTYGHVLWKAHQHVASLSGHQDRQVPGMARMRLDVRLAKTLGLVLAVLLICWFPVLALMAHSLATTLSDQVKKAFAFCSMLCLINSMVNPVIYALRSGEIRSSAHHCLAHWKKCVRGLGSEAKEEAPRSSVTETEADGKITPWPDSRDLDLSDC

With CC(C)(C)n1nnc(NC(=O)C(C)(C)S(=O)(=O)c2ccc(F)cc2)n1 [Table II compound 6] as the molecule, how does the solubility at 48 h ([1]; pH 4.5 buffer, read-out: solubility at pH 4.5) read?
Its solubility at 48 h is 133 µg/mL (≈ 360 µM).

What about the solubility at 48 h ([1]; pH 6.8 buffer, read-out: solubility at pH 6.8) of the same molecule?
Its solubility at 48 h is 122 µg/mL (≈ 330 µM).

What about the “HLM clearance (percent hepatic blood flow)” value [2] of the same molecule?
The value was under 30 QH %.

What about the Ames [3] of the same molecule?
The Ames was “negative”.

What about the EC50 (human CB2R) of the same molecule?
Its EC50 is 0.022 µM.

And the EC50 (human CB1R; CB1 CAMP EC50, Table XI)?
The EC50 was 39.5 µM.

And the EC50 (human CB1R; CB1 EC50, Table II)?
Its EC50 is 39.5 µM.
